Data on 13 molecules can be found in PMC4577092, “Identification of Small-Molecule Inhibitors of the HuR/RNA Interaction Using a Fluorescence Polarization Screening Assay Followed by NMR Validation” (PLoS ONE, 2015).

As usually defined, the IC50 is the concentration at which inhibition is half-maximal.

For the first series, the target named is T1, HuR (Homo sapiens, UniProt Q15717).
T1 construct: Full length (residue 1–326), RRM1-2 (residue 1–190); inferred from pET14b vector and metal chelation chromatography) (N); made in house; host or cells: E. coli BL21 Rosetta
T1 sequence (Q15717 whole entry): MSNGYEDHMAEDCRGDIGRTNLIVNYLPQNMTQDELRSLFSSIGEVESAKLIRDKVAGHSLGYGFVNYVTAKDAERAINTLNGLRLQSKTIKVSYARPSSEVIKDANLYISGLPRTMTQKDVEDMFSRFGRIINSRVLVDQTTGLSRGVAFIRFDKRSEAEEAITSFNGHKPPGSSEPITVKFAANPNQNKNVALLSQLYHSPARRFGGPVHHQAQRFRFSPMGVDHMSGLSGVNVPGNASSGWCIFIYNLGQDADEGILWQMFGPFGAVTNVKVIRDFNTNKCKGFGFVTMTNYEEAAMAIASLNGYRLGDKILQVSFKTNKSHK
Briefly: Fluorescence polarization (FP) competition / dose-response assay of HuR/RNA interaction. Conditions: 10nM RNA and 50nM HuR, compounds serially diluted from 250uM. In kind it is binding. How it is done:
Fluorescence polarization measurements were performed in the 384-well plate format on a Biotek Synergy2 plate reader using 480/20nm excitation and 520/20nm emission filters. The NCI diversity set V library containing 1597 compounds was screened in this study. All samples were dissolved in phosphate buffer (50mM Napi, and 100mM NaCl, 5mM TCEP at pH 7.0). The assay mixture contained 50nM HuR and 10nM RNA to yield FP values approximately 80% of the maximum value observed for fully bound RNA. NCI diversity set V library in 96-well format (10mM stock in DMSO) was transferred to 384-well plate, and then diluted into 50uM in phosphate buffer. 5ul of 50uM compound stock was added to 20 ul assay mixture to yield 10uM final compound concentration.
We first characterized the binding of the full-length HuR with 11-mer polyribonucleotide derived from the 3’ UTR of the mRNA of the C-fos oncogene (Fig 1A). The binding curves were obtained by keeping the 5’FAM-RNA at 10 nM and adding increasing amounts of HuR. The apparent dissociation constant for the HuR/RNA binding was estimated to be approximately 20 nM (Fig 1A) using the simplified equation as described. To evaluate the expected effect of the inhibitors on the FP readout of the essay, we measured displacement of the fluorescently labeled RNA by the unlabeled RNA (Fig 1B). In displacement assay, the 10nM of 5’FAM-RNA concentration was mixed with 50nM at which fluorescence polarization value was approximately 80% of the maximal value. Fluorescence polarization was measured as a function of the unlabeled RNA concentration. IC50 was obtained (~40nM) by fitting to the equation specified in the figure legend (Fig 1B)
Supplementary file pone.0138780.s002.tif: S2 Fig Dose responses of hits on confirmed hits from primary screening. Compounds at 250uM in final concentration in the assay volume of 25uL were added to the mixture of 10nM RNA and 50nM HuR in the first well in 384 format plate followed by a serial dilution into next well where the concentration of RNA and HuR was kept constant. (TIF) Click here for additional data file.
Supplementary file pone.0138780.s010.doc: S1 Table IC50 for confirmed hits from primary HTS screening. IC50s were obtained by fitting to the equation of ΔP = ΔPmax/(1+10^((Logx0-X)*p)). (DOC) Click here for additional data file.
For orientation: Fluorescence polarisation rises when a labelled molecule tumbles more slowly, as on binding a larger partner.
`CSc1nc(N)c(N=Nc2ccc([As](=O)(O)O)cc2)c(=O)[nH]1` [C6]: the IC50 worked out at 2.7 µM.

For `CO[C@@H]1[C@@H](OC(=O)c2ccc(C)[nH]2)[C@@H](O)[C@H](Oc2ccc3c(O)c(NC(=O)c4ccc(O)c(CC=C(C)C)c4)c(=O)oc3c2Cl)OC1(C)C` [C11], the IC50 was found to be 41.9 µM.

In the case of `O=C(O)C1=NN(c2cc(Cl)c(S(=O)(=O)O)cc2Cl)C(=O)C1` [C5], the IC50 was 16.7 µM.

On to `CC#CC#Cc1cccc(=O)o1` [C8], for which the IC50 came out at 44.4 µM.

For `Cc1ccc(Nc2ccc(N)cc2S(=O)(=O)O)cc1` [C2], the IC50 came to 41 µM.

With `CCOC(=O)C(=O)Cc1cccnn1` [C7], the IC50 came to 4.6 µM.

Consider `O=C(Nc1cccc([N+](=O)[O-])c1)c1ccc2ccccc2c1O` [C4], for which the IC50 came out at 97.4 µM.

With `COCC(=O)OC1CCn2c1nc1c2C(=O)C(C)=C(NC(C)=O)C1=O` (stereo not drawn) [C12], the IC50 is 17.4 µM.

On to `O=C(O)c1cc(N2C(=O)C=CC2=O)cc(N2C(=O)C=CC2=O)c1` [C3], for which the IC50 worked out at 26.9 µM.

With `COC(=O)CC1OCC=C2CN3CCC45C6=CC(=O)C(=O)C([N+](=O)[O-])=C6NC4C1C2CC35` (stereo not drawn) [C9], the IC50 is 69.6 µM.

As to `COc1cccc2c1C(=O)c1c(O)c3c(c(O)c1C2=O)CC(O)(/C(C)=N/O)CC3OC1CC(N)C(O)C(C)O1` (stereo not drawn) [C10], the IC50 is 21.7 µM.

In a further series the target is T2, Full length HuR (Homo sapiens, UniProt Q15717).
T2 construct: Full length (residue 1–326), RRM1-2 (residue 1–190); inferred from pET14b vector and metal chelation chromatography) (N); made in house; host or cells: E. coli BL21 Rosetta
T2 sequence (Q15717 whole entry): as above
Kind of series: Sedimentation velocity analytical ultracentrifugation (AUC) of HuR dimer/oligomer. The note with it: 10uM HuR and 20uM compounds. The class given is biochemical. How it is done:
Sedimentation velocity analytical ultracentrifugation was performed on a Beckman XLA analytical ultracentrifuge using an AN50 Ti rotor with standard Epon 2-channel centerpieces. The samples were spun at 25000rpm for~12hrs at 20 C. 25 scans measuring absorbance at 280nm were collected. The data were analyzed using Ultrascan III software.
Supplementary file pone.0138780.s005.tif: S5 Fig Post-hit validation using analytical ultracentrifugation (AUC). Sedimentation velocity studies are informative of the overall shape of molecule. […] We tested 4 compounds from secondary screening. 30% and 50% fraction of boundary were in orange. […] (TIF) Click here for additional data file.
Regarding `CC#CC#Cc1cccc(=O)o1` [C8], the “effect on formation of HuR dimer/oligomer (shift of boundary toward monomer)” value was “did not”.

For the molecule `Cc1ccc(Nc2ccc(N)cc2S(=O)(=O)O)cc1` [C2], the “effect on formation of HuR dimer/oligomer (shift of boundary toward monomer)” value was “did not”.

The target of a further series is T3, HuR full length (UniProt Q15717 1-326). Kind of series: fluorescence polarization; 10 nM RNA; apparent Kd; FP: 50 mM Na phosphate, 100 mM NaCl, 5 mM TCEP, pH 7.0, 384-well plate; temperature not stated; NMR conditions not in material. The note with it: protein: recombinant; (pET14b, metal chelation); label: 5'-FAM; single strand.
T3 sequence (Q15717 whole entry): as above
AUUUUUAUUUU (ssRNA) [5'-FAM c-Fos 11-mer ARE RNA]: the Kd was about 0.02 µM.

The target of a further series is T3, HuR full length. Kind of series: competition (fluorescence polarization); displacement of 10 nM 5'-FAM RNA (N1) from 50 nM HuR; FP: 50 mM Na phosphate, 100 mM NaCl, 5 mM TCEP, pH 7.0, 384-well plate; temperature not stated; NMR conditions not in material. The note with it: protein: recombinant; (pET14b, metal chelation); single strand.
In the case of AUUUUUAUUUU (ssRNA) [unlabeled c-Fos 11-mer ARE RNA], the IC50 is about 0.04 µM.
